Paper PMC4198181, “Gold(I) Complexes of 9-Deazahypoxanthine as Selective Antitumor and Anti-Inflammatory Agents” (PLoS ONE, 2014)

Tests used:
[1] = test system: human cancer cell lines (MCF7, HOS, A549, G361, HeLa, A2780, A2780R, 22Rv1); assay: MTT in vitro cytotoxicity, summary over the panel of human cancer cell lines; format: cell-based; conditions: 24 h, MTT; HAuCl4 except on G361; read-out: IC50 against all the cancer cell lines tested (inactive up to the stated concentration)
Description: In vitro cytotoxic activity was determined by the MTT assay in human breast adenocarcinoma (MCF7; ECACC no. 86012803), human osteosarcoma (HOS; ECACC no. 87070202), lung carcinoma (A549; ECACC no. 86012804), malignant melanoma (G361; ECACC no. 88030401), cervix epitheloid carcinoma (HeLa; ECACC no. 93021013), ovarian carcinoma (A2780; ECACC no. 93112519), cisplatin-resistant ovarian carcinoma (A2780R; ECACC no. 93112517) and prostate carcinoma (22Rv1; ECACC no 105092802) cancer cell lines, purchased from European Collection of Cell Cultures (ECACC). The cells were cultured according to the ECACC instructions and they were maintained at 37°C and 5% CO2 in a humidified incubator. The primary culture of human hepatocytes (HEP220, batch number HEP220819) was obtained from Biopredic International (France). The culture medium was Williams and HAM's F-12 (1∶1) supplemented with penicillin, streptomycin, ascorbic acid, linoleic acid, holo-transferin, ethanolamine, glucagon, insulin, dexamethasone, pyruvate, glucose, glutamine, amphotericin. The medium was enriched for plating with 2% foetal calf serum (v/v). The medium was exchanged for a serum-free medium the day after and the culture was stabilized for additional 24 h. Thereafter, the cells were ready for treatments. The cultures were maintained at 37°C and 5% CO2 in a humidified incubator. The cells were treated with complexes 1–5 (at the concentration levels of 0.01, 0.1, 1.0, 5.0, 25.0, and 50.0 µM), starting compounds e.g. HL1–5, AuCl, and cisplatin (applied up to 50 µM) for 24 h, using multi-well culture plates of 96 wells. […]
The cytotoxicity data were expressed as the percentage of viability, where 100% represented the treatments with vehicle (0.1% DMF or 0.1% DMSO). […] The IC50 values were calculated from viability curves. […] The significance of the differences between the results was assessed by the ANOVA analysis with p<0.05 considered to be significant (QC Expert 3.2, Statistical software, TriloByte Ltd., Pardubice, Czech Republic).

[2] = test system: IL-1β secretion in LPS-stimulated macrophage-like THP-1 cells; assay: LPS-induced IL-1β secretion in THP-1 macrophages (ELISA); format: cell-based, human; conditions: 300 nM, 1 h pretreatment, 24 h after LPS
Description: (§1) For the determination of biological activity, we used the human monocytic leukaemia cell line THP-1 (ECACC, Salisbury, UK). The cells were cultivated at 37°C in the RPMI 1640 medium supplemented with 2 mM L-glutamine, 10% FBS, 100 U/mL of penicillin and 100 µg/mL of streptomycin in a humidified atmosphere containing 5% CO2. Stabilized cells (3rd–15th passage) were split into microtitration plates to get a concentration of 500 000 cells/mL and the differentiation to macrophages was induced by phorbol myristate acetate (PMA) dissolved in dimethyl sulfoxide (DMSO) at the final concentration of 50 ng/ml, and the cells were incubated for 24 h. In comparison with monocytes, differentiated macrophages tend to adhere to the bottoms of the cultivation plates. For next 24 h the cells were incubated with a fresh complete RPMI medium, i.e. containing antibiotics and FBS, without PMA. The medium was then aspirated, and the cells were washed with PBS and cultivated for next 24 hours in serum-free RPMI 1640 medium. These prepared macrophages were used for the detection of inflammatory response.
(§2) Differentiated macrophages were pretreated with 300 nM solutions of the tested complexes, HLn, AuCl, [AuCl(PPh3)], PPh3 and Auranofin dissolved in DMSO (the final DMSO concentration was 0.1%) and with 0.1% DMSO solution itself (vehicle) for 1 h; the given concentrations of the tested compounds lack the cytotoxic effect (cell viability >94%) based on the results of WST-1 test. The inflammatory response in pretreated macrophages was triggered by the addition of 1.0 µg/mL lipopolysaccharide (LPS) dissolved in water, while the control cells (CTRL) remained without the LPS treatment.
(§3) Macrophages, which were pretreated with the tested compounds (complexes 1–5, HLn, AuCl, [AuCl(PPh3)], PPh3 and Auranofin) for 1 h, were incubated with LPS for next 24 h. After this period, the medium was collected and the concentration of TNF-α, and IL-1β was determined by the Instant ELISA Kit according to the manufactures' manual.
(§4) The statistically significant differences between individual groups during anti- inflammatory testing were evaluated using a one-way ANOVA test for statistical analysis, followed by Tukey's post-hoc test for multiple comparisons. GraphPad Prism 5.02 (GraphPad Software Inc., San Diego, CA, USA) was used to perform the analysis. The results are presented as arithmetic means±S.E. values.

[3] = test system: TNF-α secretion in LPS-stimulated macrophage-like THP-1 cells; assay: LPS-induced TNF-α secretion in THP-1 macrophages (ELISA); format: cell-based, human; conditions: 300 nM, 1 h pretreatment, 24 h after LPS
Description: as §1, §2, §3, §4

[4] = test system: IκB-α degradation (NF-κB signalling pathway); assay: LPS-induced IκB-α degradation (Western blot) in THP-1 macrophages; format: cell-based, human; conditions: 300 nM, 30 min after LPS
Description: Macrophage-like THP-1 cells were pretreated with the tested compounds and stimulated by LPS as was describe above. Thirty minutes after the addition of LPS, the medium was aspirated and cells were washed by cold phosphate buffer solution (PBS). Subsequently, the cells were collected using the lysis buffer [50 mM Tris-HCl pH 7.5, 1 mM EGTA, 1 mM EDTA, 1 mM sodium orthovanadate, 50 mM sodium fluoride, 5 mM sodium pyrophosphate, 270 mM sucrose, 0.1% (v/v) Triton X-100, and cOmplete Protease Inhibitor Cocktail (Roche, Germany)] and scraper. The lysis of cells was facilitated by a short (≈30 s) incubation in the ultrasonic water bath. The protein concentration was determined according to Bradford's method. For protein separation, 30 µg of protein was loaded onto the 12% polyacrylamide gel. […] The membranes were incubated with the primary anti-IκB-α antibody at the concentration ratio of 1∶500, or with the primary anti-β-actin at the concentration ration of 1∶5 000 at 4°C for 16 h. After washing, the secondary anti-mouse IgG antibody diluted 1∶2 000 was applied on the membranes and incubated at laboratory temperature (22°C) for 1 h. The amount of the bound secondary antibody was detected colorimetrically by an Opti-4CN Kit according to the manufacturer's manual.

[5] = test system: THP-1 monocytic leukaemia cells; assay: WST-1 in vitro cytotoxicity, THP-1; format: cell-based, human; conditions: 24 h treatment, WST-1, 0.16–10.00 µM; read-out: IC50±S.E., THP-1
Description: Before the in vitro anti-inflammatory testing, in vitro cytotoxicity on human monocytic leukaemia cells (THP-1, ECACC no. 88081201) was determined using the WST-1 assay. The THP-1 cells (floating monocytes, 500 000 cells/mL) were incubated in 100 µL of the serum-free RPMI 1640 medium and seeded into 96-well plates in triplicate at 37°C. Measurements were taken 24 h after the treatment with the tested compounds dissolved in 0.1% DMSO in the concentration range of 0.16–10.00 µM. Viability was determined by the WST-1 test according to the manufacturer's manual. The amount of the formed formazan (which correlates to the number of metabolically active cells in the culture) was calculated as a percentage of the control cells, which were treated only with 0.1% DMSO and was set-up as 100%. The IC50 values of the tested compounds were calculated from the obtained data. The WST-1 assay was performed spectrophotometrically at 440 nm (FLUOstar Omega, BMG Labtech).
The cytotoxicity data were expressed as the percentage of viability, where 100% represented the treatments with vehicle (0.1% DMF or 0.1% DMSO). The cytotoxicity data from the cancer cell lines were acquired from three independent experiments (conducted in triplicate) using cells from different passages. The IC50 values were calculated from viability curves. The results are presented as arithmetic means±standard error of the mean (S.E.). The significance of the differences between the results was assessed by the ANOVA analysis with p<0.05 considered to be significant (QC Expert 3.2, Statistical software, TriloByte Ltd., Pardubice, Czech Republic).

TNF-α mRNA = assay: TNF-α gene expression by RT-qPCR in LPS-stimulated THP-1 macrophages; format: cell-based, human; conditions: 300 nM, 2 h after LPS, normalised to β-actin
Description: as §1
(§5) In the order to evaluate the expression of TNF-α, IL-1β, and β-actin mRNA, total RNA was isolated directly from the LPS-stimulated THP-1 cells. THP-1 macrophages were pretreated with compounds 2, 5, and Auranofin at the concentration of 300 nM or the vehicle (0.1% DMSO) only. After 1 h of the incubation, the inflammatory response was induced by LPS [except for the control cells (CTRL)]. After 2 h of the incubation with LPS, the medium was aspirated and the total RNA was isolated directly from the cells in cultivation plates using a RealTime Ready Cell Lysis Kit (Roche), according to the manufacturer's instructions.
(§6) The gene expression was quantified by two-step reverse-transcription quantitative (real-time) PCR (RT-qPCR). The reverse transcription step was performed by Transcriptor Universal cDNA Master using cell lysate as a template. […] The results were normalized to the amount of ROX reference dye, and the change in gene expression was determined by the 2^−ΔΔCT method. […]

IL-1β mRNA = assay: IL-1β gene expression by RT-qPCR in LPS-stimulated THP-1 macrophages; format: cell-based, human; conditions: 300 nM, 2 h after LPS, normalised to β-actin
Description: as §1, §5, §6

[6] = test system: G361 malignant melanoma cells; assay: MTT in vitro cytotoxicity, G361; format: cell-based, human; conditions: 24 h treatment, read-out: IC50±S.E., G361
Description: In vitro cytotoxic activity was determined by the MTT assay in human breast adenocarcinoma (MCF7; ECACC no. 86012803), human osteosarcoma (HOS; ECACC no. 87070202), lung carcinoma (A549; ECACC no. 86012804), malignant melanoma (G361; ECACC no. 88030401), cervix epitheloid carcinoma (HeLa; ECACC no. 93021013), ovarian carcinoma (A2780; ECACC no. 93112519), cisplatin-resistant ovarian carcinoma (A2780R; […] ECACC no 105092802) cancer cell lines, purchased from European Collection of Cell Cultures (ECACC). […] The primary culture of human hepatocytes (HEP220, batch number HEP220819) was obtained from Biopredic International (France). The culture medium was Williams and HAM's F-12 (1∶1) supplemented with penicillin, streptomycin, ascorbic acid, linoleic acid, holo-transferin, ethanolamine, glucagon, insulin, dexamethasone, pyruvate, glucose, glutamine, amphotericin. The medium was enriched for plating with 2% foetal calf serum (v/v). The medium was exchanged for a serum-free medium the day after and the culture was stabilized for additional 24 h. Thereafter, the cells were ready for treatments. […] The MTT assay was performed spectrophotometrically at 540 nm (TECAN, Schoeller Instruments LLC). The cytotoxicity data were expressed as the percentage of viability, where 100% represented the treatments with vehicle (0.1% DMF or 0.1% DMSO). The cytotoxicity data from the cancer cell lines were acquired from three independent experiments (conducted in triplicate) using cells from different passages. The IC50 values were calculated from viability curves. The results are presented as arithmetic means±standard error of the mean (S.E.).

Row | Structure (SMILES) | IC50 [1] [µM] | effect on LPS-induced IL-1β secretion [2] | effect on LPS-induced TNF-α secretion [3] | effect on LPS-induced IκB degradation [4] | IC50 [5] [µM] | effect on TNF-α mRNA transcription (TNF-α mRNA) | effect on IL-1β mRNA transcription (IL-1β mRNA) | IC50 [6] [µM]
1 | [Au+].[Cl-] [AuCl] | > 50 | decreased the production of IL-1β by a manner comparable to free ligands | none of the reference compounds, such as AuCl, HLn, [AuCl(PPh3)] and PPh3, exhibited any expected effect |  |  |  |  | 
2 | CC[PH](CC)(CC)[Au][S][C@@H]1O[C@H](COC(C)=O)[C@@H](OC(C)=O)[C@H](OC(C)=O)[C@H]1OC(C)=O [Auranofin, triethylphosphine-(2,3,4,6-tetra-O-acetyl-β-D-thiopyranosato)gold(I), reference compound] |  |  |  | block moderately the IκB degradation | 0.9 ± 0.1 | significantly reduce the transcription | significantly reduce the transcription | 
3 | [Cl][Au-]([Cl])([Cl])[Cl].[H+] [HAuCl4, reference compound] | > 50 |  |  |  |  |  |  | 38.1 ± 2.3
